Source: patent publication US20050239873A1 (priority 1999, published 2005)

How the values were obtained:
[1] = Stability in cell culture; type: in vitro ADME; settings: HL-60 and RPMI-8226 cultures, 500 ng/ml
Description: HL60 and RPMI-8226 cells were maintained in cell culture medium in the presence or absence of 20% fetal bovine serum. 2-OMeA1 (500 ng/ml) was added to a culture containing 200,000 cells/ml, and to another flask containing only the medium. From the flasks, portions were removed at various times and, as appropriate, centrifuged to collect cells. Samples of cell-free medium, to which NaF/EDTA was added, were extracted. Collected cells were suspended in phosphate-buffered saline (PBS) containing NaF/EDTA, subjected to sonication, and then extracted and analyzed.

[2] = biological target: T1, Bcl-xL(ΔC) WT (Homo sapiens, UniProt Q07817); test: Pore-forming activity, calcein release from liposomes; type: biochemical
T1 construct: inferred from Ni-NTA purification and the pET22b(+) NdeI/XhoI cloning); made in house; host or cells: Escherichia coli BL21(DE3) carrying pUB520
In short: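 Bcl-xL(ΔC) protein (500 nM) was added to calcein-loaded 60:40 DOPC/DOPG LUVs (60 μM lipid) in 100 mM KCl, 10 mM KOAc, pH 5.0. Fluorescence was read at 490/520 nm, with kinetics at 37 °C and dose responses at room temperature. BH3 peptides were preincubated 5 min with protein; release was expressed as % of Triton X-100 lysis.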

[3] = tested on: unfractionated human bone marrow cells; test: Toxicity in normal bone marrow cells (PI and annexin V, flow cytometry); type: cell-based; settings: 5-20 μg/ml, 24 to 48 h
Description: The RPMI-8226 cell line was supplied by W. Dalton (Univ. Arizona). U266 and H929 cell lines were obtained from the American Type Culture Collection (Rockville, Md.). Cell lines were grown in RPMI 1640 (Gibco, Grand Island, N.Y.) supplemented with 5% fetal bovine serum (Hyclone, Logan, Utah). Normal bone marrow samples were obtained from allogeneic transplant donors at the Fred Hutchison Cancer Research Center, Seattle, Wash., with appropriate patient consent and Internal Review Board approval. Primary cells were maintained in Iscove's medium (Gibco) supplemented with 10% bovine calf serum, 100 ng/ml stem cell factor (Amgen, Thousand Oaks, Calif.), and 50 ng/ml interleukin-3 (Biosource, Camarillo, Calif.).
Cell survival was assayed by exclusion of propidium iodide (PI; 10 μg/ml) by unfixed cells. Annexin V-FITC (Pharmingen) or 3, 3′-dihexyloxacarbocyanine iodide (DiOC6(3); Molecular Probes) staining was analyzed together with PI to discriminate early apoptotic cells. Apoptotic cells were also measured as sub-G1 events among ethanol-fixed cells stained with 10 μg/ml PI. All cell samples were analyzed using a benchtop FACSCalibur™ (Becton Dickinson, San Jose, Calif.). Flow data were analyzed using MultiCycle AV software (Phoenix Flow Systems). For intracellular pH measurements, cell pellets were washed once and resuspended in 2 ml of HEPES-buffered medium (no phenol red and no serum). […]

[4] = tested on: TABX2S cells; test: Cellular respiration by oximetry; type: cell-based, murine; settings: higher concentrations (above 1 μg/ml)
Description: (§1) Briefly, TABX2S cells (over-expressing Bcl-xL) and control cells (TAMH.neo) were suspended in air-equilibrated complete medium at a density of 3 million cells per milliliter and placed in a thermostatted electrode chamber at 37° C.

[5] = tested on: TAMH.neo control cells; test: Cellular respiration by oximetry; type: cell-based, murine; settings: higher concentrations (above 1 μg/ml)
Description: as §1

[6] = Binding to plasma proteins (ultrafiltration); type: in vitro ADME, mouse; settings: mouse, plasma, presence of NaF+EDTA, read-out: Protein binding, Mouse
Description: Solutions of 2-OMe antimycin A3 were diluted with plasma (dog or human) containing NaF+EDTA to final concentrations of 1.0 or 0.2 μg/ml. Controls were diluted with water to the same final concentrations. These preparations were incubated at 37° C. for 20 min, at which time portions were taken and placed in the sample reservoirs of Amicon Centrifree® ultrafiltration systems (Millipore Co., Bedford, Mass.). At 37° C., the filter systems were centrifuged until the reservoirs were dry. From each filtrate, portions were taken for analysis by HPLC. The amounts present were designated as “free drug” (F). The concentrations of the unfiltered solutions were also determined by triplicate analyses. This amount represented the “total drug” concentration (T). The percentage of 2-OMe antimycin A3 bound to plasma proteins was calculated by the following formula: % bound=((T−F)/T)×100

T1 sequence (Q07817 1-211 limits assumed, stated change not applied): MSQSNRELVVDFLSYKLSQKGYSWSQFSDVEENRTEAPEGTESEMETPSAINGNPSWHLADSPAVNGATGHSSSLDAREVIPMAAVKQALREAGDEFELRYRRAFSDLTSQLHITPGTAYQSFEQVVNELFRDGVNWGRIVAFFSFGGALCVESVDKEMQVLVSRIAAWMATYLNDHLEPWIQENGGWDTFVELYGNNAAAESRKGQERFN

For `CCCCCC[C@H]1C(=O)O[C@H](C)[C@H](NC(=O)c2cccc(NC=O)c2OC)C(=O)O[C@@H](C)[C@@H]1OC(=O)CC(C)C` [2-OMeA1, 2-methoxy antimycin A1], which “stability in the medium from cell cultures” value [1] is on record?
The value was “notably less stable in the absence of fetal bovine serum”.

What about the “effect on Bcl-xL pore-forming activity” value [2] of the same compound?
Its value is “inhibited”.

With 2-methoxy antimycin A [2-OMeA] as the compound, how does the “sensitivity of primary lymphoid and myeloid bone marrow cell subpopulations” value [3] read?
Its value is “insensitive”.

For antimycin A, which “basal oxygen consumption maintained” value [4] is on record?
The value was “about 20%”.

And the oxygen consumption [5]?
The oxygen consumption was “almost completely inhibited”.

For `CCCC[C@H]1C(=O)OC(C)[C@H](NC(=O)c2cccc(NC=O)c2OC)C(=O)O[C@@H](C)C1OC(=O)CC(C)C` (stereo partly drawn) [2-OMeA3, Antimycin A3 methyl ether], which fraction unbound at 20 min, 1000 ng/ml [6] is on record?
The fraction unbound at 20 min, 1000 ng/ml was less than 0.01.
